In patent USRE32455E, “A-21978 antibiotics and process for their production” (priority 1985, dated 1987):
≈ marks a conversion by molar mass, not a printed value. Where “and” joins values, the source holds several entries; their conditions need not be identical. Equal values may be shown once. Read-outs that look alike come from different tables or passages of the source.

How the values were obtained:
[1] = Electrometric titration in 66% aqueous dimethylformamide; type: physicochemical; details: 66% DMF; Na salt; factors: two determinations
[2] = test system: pathogenic organisms, particularly gram-positive bacteria; assay: Inhibition of growth of pathogenic organisms; type: cell-based
[3] = test system: Staphylococcus aureus 3055; assay: MIC, standard agar-dilution test; type: cell-based; details: Table XI, sodium salt
[4] = test system: Group D Streptococcus 282; assay: MIC, standard agar-dilution test; type: cell-based; details: Table XI, sodium salt
[5] = test system: Streptococcus pyogenes C203; assay: MIC, standard agar-dilution test; type: cell-based; details: Table XI, sodium salt
[6] = test system: Streptococcus pneumoniae Park I; assay: MIC, standard agar-dilution test; type: cell-based; details: Table XI, sodium salt
[7] = test system: Viridans Streptococcus 9943; assay: MIC, standard agar-dilution test; type: cell-based; details: Table XI, sodium salt
[8] = test system: Neisseria gonorrhoeae 111076-4; assay: MIC, standard agar-dilution test; type: cell-based; details: Table XI, sodium salt
[9] = test system: Staphylococcus aureus 3055; assay: MIC, standard broth-dilution test; type: cell-based; details: Table XII, sodium salt
[10] = test system: Group D Streptococcus 282; assay: MIC, standard broth-dilution test; type: cell-based; details: Table XII, sodium salt
[11] = test system: Streptococcus pyogenes C203; assay: MIC, standard broth-dilution test; type: cell-based; details: Table XII, sodium salt
[12] = test system: Streptococcus pneumoniae Park I; assay: MIC, standard broth-dilution test; type: cell-based; details: Table XII, sodium salt
[13] = test system: Viridans Streptococcus 9943; assay: MIC, standard broth-dilution test; type: cell-based; details: Table XII, sodium salt
[14] = test system: Actinomyces isaelii; assay: MIC anaerobic bacteria, standard agar-dilution test; type: cell-based
[15] = test system: Clostridium perfringens; type: cell-based; details: anaerobic, agar-dilution
[16] = test system: Clostridium septicum; assay: MIC anaerobic bacteria, standard agar-dilution test; type: cell-based
[17] = test system: Eubacterium aerofaciens; assay: as above; type: cell-based
[18] = test system: Peptococcus asaccharolyticus; assay: as above; type: cell-based
[19] = test system: Peptococcus prevoti; assay: as above; type: cell-based
[20] = test system: Peptostreptococcus anaerobius; assay: as above; type: cell-based
[21] = test system: Peptostreptococcus intermedius; assay: as above; type: cell-based
[22] = test system: Propionibacterium acnes; assay: as above; type: cell-based
[23] = test system: Bacteroides fragilis; assay: as above; type: cell-based
[24] = test system: Fusobacterium symbiosum; assay: as above; type: cell-based
[25] = test system: Fusobacterium necrophorum; assay: as above; type: cell-based
[26] = test system: Staphylococcus aureus; assay: MIC, agar dilution (Table XV); type: cell-based
Text: ^1 MIC = minimum inhibitory concentration (μg/ml), agar dilution

[27] = test system: Streptococcus pyogenes; assay: MIC, agar dilution (Table XV); type: cell-based
[28] = test system: Streptococcus pneumoniae; assay: MIC, agar dilution (Table XV); type: cell-based
[29] = test system: Staphylococcus aureus; assay: Experimental bacterial infection in mice, ED50; type: in vivo; details: two doses, subcutaneous administration
Experimental: (§1) When two doses of test compound were administered to mice in illustrative infections, the activity observed was measured as an ED50 value [effective dose in mg/kg to protect fifty percent of the test animals: See Warren Wick, et al., J. Bacteriol. 81, 233-235 (1961)].

[30] = test system: Streptococcus pneumoniae; assay: Experimental bacterial infection in mice, ED50; type: in vivo; details: two doses, subcutaneous administration
Experimental: as §1

[31] = test system: Streptococcus pyogenes; assay: Experimental bacterial infection in mice, ED50; type: in vivo; details: two doses
Experimental: as §1

[32] = test system: Streptococcus faecalis (Guze); assay: In vitro susceptibility (MIC) of the S. faecalis Guze strain; type: cell-based
[33] = test system: Streptococcus faecalis (Guze); assay: Streptococcus faecalis descending rat pyelonephritis test; type: in vivo, rat (female albino, Cox-Wistar)
Experimental: In this test, the bacterial culture used was Streptococcus faecalis (Guze). The culture was grown on Trypticase soy agar (BBL), suspended in brain heart infusion broth (BBL), divided into 0.2-ml portions, and frozen in liquid nitrogen. Bacterial suspensions for rat inoculations were prepared daily by seeding a 50-ml flask of trypticase soy broth (BBL) from a frozen ampoule and growing the culture overnight at 37° C. on a shaker. The S. faecalis culture was diluted to 5×10^8 colony-forming units per ml. Test compounds were injected subcutaneously once daily for seven days. All compounds were suspended in 0.125% carboxymethylcellulose.
The experimental rat infections were accomplished by the following procedure. Female, random-bred albino rats (Cox-Wistar) weighing 190 to 210 g were anesthetized by intraperitoneal injection of 12 mg of sodium methohexital supplemented as necessary. The experimental pyelonephritis model was based on the studies of Guze and Beeson in which the left ureter was occluded for 20 min, followed by injection of 0.5 ml of the test organism in the femoral vein. Antimicrobial therapy was commenced 4 to 5 hrs postinfection. Four hours after the last treatment the rats were sacrificed, and the left kidney was removed and homogenized in a Duall grinder containing 9 ml of physiological saline. This represented a 10^-1 dilution of the kidney tissue. Additional 10-fold dilutions in saline were based on the anticipated bacterial cells present in the tissue homogenate. Finally, duplicate agar pour plates were made from several of these dilutions, and the plates were incubated overnight at 37° C. The therapeutic results were expressed in two ways: (i) the percentage of rats with kidney counts of less than 10^2 per g of kidney tissue, referred to as "cures," and (ii) the percentage of rats with at least a 4-log10 reduction in bacterial titer compared with infected control kidneys. Control rats were treated with 0.125% carboxymethylcellulose only. Viable cell counts in kidney tissue from control rats with S. faecalis ranged from 1.2×10^8 to 4.6×10^8 per g of homogenized tissue.

[34] = Toxicity (LD50) in mouse; type: in vivo
[35] = Toxicity (LD50) in rat; type: in vivo; details: IV
[36] = test system: Micrococcus luteus; assay: Bioassay, paper-disc agar-diffusion; details: Na salts; Table VIII
[37] = test system: A21978.6; assay: Antibiotic sensitivity, sensitivity discs on seeded agar plates; type: cell-based, Streptomyces roseosporus; details: Conc./disc: erythromycin 15 μg, cephalothin 30 μg, lincomycin 2 μg, nystatin 100 units, polymyxin B 300 units, streptomycin 10 μg, tetracycline 30 μg, vancomycin "+μg"; further: key: +: sensitive (zones of inhibition); -: resistant (no zones of inhibition)
Experimental: Temperature range, NaCl tolerance, pH range, and antibiotic sensitivity were done using ISP #2 agar medium. The range of temperatures were: 25°, 28°, 30°, 34°, 37°, 40°, 45°, 50° and 55° C. NaCl tolerance was measured by adding NaCl to the agar to equal: 0, 1, 2, 3, 4, 5, 6, 8, 10 and 12%. These were incubated at 30° C. The pH range was measured by adjusting the agar from pH 3.0 to 11.0 at increments of 1.0 pH units, just prior to pouring. Antibiotic sensitivity was determined using sensitivity discs padded onto seeded agar plates.

[38] = test system: S. roseosporus; assay: as above; type: cell-based, Streptomyces roseosporus; details: Conc./disc: erythromycin 15 μg, cephalothin 30 μg, lincomycin 2 μg, nystatin 100 units, polymyxin B 300 units, streptomycin 10 μg, tetracycline 30 μg, vancomycin "+μg"; further: key: +: sensitive (zones of inhibition); -: resistant (no zones of inhibition)
Experimental: Temperature range, NaCl tolerance, pH range, and antibiotic sensitivity were done using ISP #2 agar medium. The range of temperatures were: 25°, 28°, 30°, 34°, 37°, 40°, 45°, 50° and 55° C. […] These were incubated at 30° C. The pH range was measured by adjusting the agar from pH 3.0 to 11.0 at increments of 1.0 pH units, just prior to pouring. Antibiotic sensitivity was determined using sensitivity discs padded onto seeded agar plates.

CCC(C)CCCCCCC(=O)N[C@@H](Cc1c[nH]c2ccccc12)C(=O)NC(CC(N)=O)C(=O)N[C@@H](CC(=O)O)C(=O)N[C@@H]1C(=O)NCC(=O)N[C@@H](CCCN)C(=O)N[C@@H](CC(=O)O)C(=O)N[C@H](C)C(=O)N[C@@H](CC(=O)O)C(=O)NCC(=O)N[C@H](CO)C(=O)N[C@@H]([C@H](C)CC(=O)O)C(=O)N[C@@H](CC(=O)c2ccccc2N)C(=O)O[C@@H]1C (stereo in doubt) [Factor C1]
pKa (first group) [1]: 5.7 and 5.9 | growth inhibition [2]: inhibit the growth of certain pathogenic organisms, particularly gram-positive bacteria | MIC [3]: 0.5 mg/L | MIC [4]: 1.0 mg/L | MIC [5]: 0.13 mg/L | MIC [6]: 0.13 mg/L | MIC [7]: 0.5 mg/L | MIC [8]: 16.0 mg/L | MIC [9]: 1.0 mg/L | MIC [10]: 2.0 mg/L | MIC [11]: 0.5 mg/L | MIC [12]: 2.0 mg/L | MIC [13]: 32.0 mg/L | MIC [14]: 4 mg/L (≈ 2.45 µM) | MIC [15]: 16 mg/L (≈ 9.79 µM) | MIC [16]: 4 mg/L (≈ 2.45 µM) | MIC [17]: 16 mg/L (≈ 9.79 µM) | MIC [18]: 4 mg/L (≈ 2.45 µM) | MIC [19]: 2 mg/L (≈ 1.22 µM) | MIC [20]: 2 mg/L (≈ 1.22 µM) | MIC [21]: 4 mg/L (≈ 2.45 µM) | MIC [22]: 8 mg/L (≈ 4.89 µM) | MIC [23]: > 128 mg/L | MIC [24]: > 128 mg/L | MIC [25]: 64 mg/L (≈ 39.2 µM) | MIC [26]: 0.5 mg/L (≈ 0.306 µM) | MIC [27]: 0.13 mg/L (≈ 0.0795 µM) | MIC [28]: 0.13 mg/L (≈ 0.0795 µM) | ED50 [29]: 0.22 mg/kg | ED50 [30]: 0.3 mg/kg | ED50 [31]: 0.064 mg/kg | ED50 ([31]; oral administration): 93 mg/kg | MIC ([32]; Table XVI): 1.0 mg/L (≈ 0.612 µM) | Percent of Rats Cured ([33]; 1.0 mg/kg × 7, subcutaneous): 50% | Percent of Rats with a 4-Log Titer Decrease ([33]; 1.0 mg/kg × 7, subcutaneous): 50% | LD50 ([34]; IV): > 250 mg/kg | LD50 ([34]; SC): > 365 mg/kg | LD50 [35]: 479 ± 32 mg/kg | Bioassay (Micrococcus luteus) [36]: 1663 units/mg

CC(=O)OCC1=C(C(=O)O)N2C(=O)[C@@H](NC(=O)Cc3cccs3)[C@H]2SC1 [Cephalothin]
Antibiotic sensitivity [37]: + | Antibiotic sensitivity [38]: +

CC[C@H]1OC(=O)[C@H](C)[C@@H](O[C@H]2C[C@@](C)(OC)[C@@H](O)[C@H](C)O2)[C@H](C)[C@@H](O[C@@H]2O[C@H](C)C[C@H](N(C)C)[C@H]2O)[C@](C)(O)C[C@@H](C)C(=O)[C@H](C)[C@@H](O)[C@]1(C)O [Erythromycin, reference compound]
Antibiotic sensitivity [37]: + | Antibiotic sensitivity [38]: + | MIC ([26]; Staphylococcus aureus, read-out: MIC): 0.13 mg/L (≈ 0.177 µM) | MIC ([27]; Streptococcus pyogenes, read-out: MIC): 0.13 mg/L (≈ 0.177 µM) | MIC ([28]; Streptococcus pneumoniae, read-out: MIC): 0.5 mg/L (≈ 0.681 µM)

CCC[C@@H]1C[C@@H](C(=O)N[C@@H]([C@H]2O[C@H](SC)[C@H](O)[C@@H](O)[C@H]2O)[C@@H](C)O)N(C)C1 [Lincomycin]
Antibiotic sensitivity [37]: - | Antibiotic sensitivity [38]: -

C[C@@H]1[C@H](O)[C@@H](C)/C=C/C=C/CC/C=C/C=C/C=C/C=C/C(O[C@H]2O[C@H](C)[C@@H](O)[C@H](N)[C@@H]2O)CC2O[C@](O)(CC(O)C(O)CCC(O)CC(O)CC(O)CC(=O)O[C@H]1C)CC(O)C2C(=O)O (stereo partly shown) [Nystatin]
Antibiotic sensitivity [37]: - | Antibiotic sensitivity [38]: -

[H]/N=C(/N)N[C@H]1[C@H](O)[C@@H](O)[C@H](O[C@@H]2O[C@@H](C)[C@](O)(C=O)[C@H]2O[C@@H]2O[C@@H](CO)[C@H](O)[C@@H](O)[C@@H]2NC)[C@@H](N/C(N)=N\[H])[C@@H]1O [Streptomycin]
Antibiotic sensitivity [37]: + | Antibiotic sensitivity [38]: +

CN(C)C1C(=O)C(C(N)=O)=C(O)C2(O)C(=O)C3=C(O)c4c(O)cccc4C(C)(O)C3CC12 (stereo not shown) [Tetracycline]
Antibiotic sensitivity [37]: + | Antibiotic sensitivity [38]: +

CN[C@H](CC(C)C)C(=O)N[C@H]1C(=O)N[C@@H](CC(N)=O)C(=O)N[C@H]2C(=O)N[C@H]3C(=O)N[C@H](C(=O)N[C@H](C(=O)O)c4cc(O)cc(O)c4-c4cc3ccc4O)[C@H](O)c3ccc(c(Cl)c3)Oc3cc2cc(c3O[C@@H]2O[C@H](CO)[C@@H](O)[C@H](O)[C@H]2O[C@H]2C[C@](C)(N)[C@H](O)[C@H](C)O2)Oc2ccc(cc2Cl)[C@H]1O [Vancomycin, reference compound]
Antibiotic sensitivity [37]: + | Antibiotic sensitivity [38]: + | MIC ([32]; Enterococcus faecalis): 1 mg/L (≈ 0.69 µM) | Percent of Rats Cured ([33]; 12.0 mg/kg × 7, subcutaneous): 33% | Percent of Rats with a 4-Log Titer Decrease ([33]; 12.0 mg/kg × 7, subcutaneous): 55%

Polymyxin B
Antibiotic sensitivity [37]: + | Antibiotic sensitivity [38]: -
